Experimental data: patent US5714479A, “Endothelin antagonistic heteroaromatic ring-fused cyclopentene derivatives” (Banyu Pharmaceutical Co., Ltd., priority 1993, dated 1998)

How the values were obtained:
ETA receptor = experiment: Endothelin binding inhibition test to ETA receptor (porcine aorta smooth muscle membranes, 125I-endothelin-1); conditions: at 1.1 μM
Method: Endothelin binding inhibition test to ETA receptor
(§1) The smooth muscle tissue of porcine aorta was homogenized in a buffer solution of 10 mM MOPS, pH 7.4, at 4° C. by a polytron. To the homogenate, sucrose was added to a concentration of 20%, and the mixture was centrifuged at 1,000×g for 15 minutes, and the supernatant was further centrifuged at 10,000×g for 15 minutes. The supernatant thereof was further centrifuged at 90,000×g for 40 minutes. The membrane precipitate thereby obtained was suspended in a buffer solution of 5 mM HEPES/Tris, pH 7.4, at a concentration of 25 mg/ml.
(§2) Then, 16 μl of this membrane suspension was added to 340 μl of 50 mM tris/HCl buffer, pH 7.4, containing […] calcium chloride, 10 μM magnesium chloride, 0.1 mM PMSF, 1 μM pepstatin A, 2 μM leupeptin, 1 mM 1,10-phenanthroline and 0.1% bovine serum albumin. To this suspension, 4 μl of (A) endothelin-1 (for nonspecific binding; 0.2 μM as the final concentration), (B) buffer solution A (for total control binding), or (C) a test compound (1.1 μM as the final concentration), was added. Further, to each suspension, 40 μl of ^125 I-endothelin-1 (12000-18000 cpm) was added. […] Then, the radioactivity trapped by the glass filter was measured, and the ^125 I-endothelin-1 binding inhibition D (%) at 1.1 μM of the test compound was determined by the following equation. […]

ETB receptor = experiment: Endothelin binding inhibition test to ETB receptor (porcine cerebellum membranes, 125I-endothelin-1); conditions: at 1.1 μM
Method: Endothelin binding inhibition test to ETB receptor
as §1, with “cerebellum” for “smooth muscle tissue”, “porcine” for “porcine aorta”, “3.3” for “25”
as §2

human ETA receptor = experiment: Endothelin binding inhibition test to human ET receptor (ETA); conditions: 1.1 μM; human cell membranes (SK-N-MC or Girardi heart cells)
Method: (§3) Endothelin binding inhibition test to human ET receptor
(§4) The human neuroblastoma SK-N-MC cells or the human Girardi heart cells purchased from Dainippon Seiyaku (Japan) were cultured in minimal essential medium supplemented with fetal calf serum. The cells were collected and homogenized in 10 mM MOPS buffer (pH 7.4) containing 154 mM NaCl, 10 mM KCl, 0.8 mM CaCl2 and 20% sucrose at 4° C. using a polytron homogenizer. The homogenate was then centrifuged at 1,000×gfor 15 minutes. The supernatant was centrifuged at 100,000×g for 1 hour at 4° C. Then the pellet was washed with 5 mM Hepes/Tris buffer (pH 7.4). The resulting membranes were incubated with [^125 I]endothelin-1 in the presence of each test compound or vehicle (1% dimethyl sulfoxide) in 50 mM Tris/HCl buffer (pH 7.4) containing 0.1 mM phenylmethanesulfonyl fluoride, 1 μM pepstatin, 2 μM leupeptin, 1 mM 1,10-phenanthroline, 1 mM EDTA, 10 μM CaCl2, 10 μM MgCl2 and 0.1% BSA in a total volume of 0.4 ml. After 4 hours incubation, cold 5 mM Hepes/Tris buffer (pH 7.4) containing 0.3% BSA (Buffer A) was added to the mixture. Free and bound [^125 I]endothelin-1 were separated by filtration using Whatman GF/C glass fiber filters. After the filtration, the filters were washed with buffer A, and the radioactivity on the filters was measured in a γ counter. Nonspecific binding was determined in the presence of 200 nM endothelin-1. […]

human ETB receptor = experiment: Endothelin binding inhibition test to human ET receptor (ETB); conditions: 1.1 μM; human cell membranes (SK-N-MC or Girardi heart cells)
Method: as §3, §4

[1] = system: isolated porcine coronary arteries; experiment: Activities against endothelin-induced contraction of isolated porcine coronary arteries; design: species or system pig
Method: Activities against endothelin-induced contraction of isolated porcine coronary arteries
(§5) The coronary artery of pig was extracted, and a spiral preparation having a width of 1 mm and a length of 10 mm was prepared therefrom. The preparation having the endothelial cells denuded, was hanged in a 5 ml organ bath filled with a Krebs.Heneseleit solution saturated with a gas mixture of 95% O2 and 5% CO2, and a change in the tension was isometrically measured and recorded.
(§6) Endothelin-1 was added into the organ bath in a cumulatively increasing manner, whereby the influence of a compound of the present invention to the concentration-response curve for endothelin-1 was examined. The compound was added into the organ bath 20 minutes prior to the addition of endothelin-1.

[2] = system: isolated rabbit iliac arteries; experiment: Activities against endothelin-induced contraction of isolated rabbit iliac arteries
Method: Activities against endothelin-induced contraction of isolated rabbit iliac arteries
as §5, with “iliac” for “coronary”, “rabbit” for “pig”, “isolated,” for “extracted,”, “placed” for “hanged”, “Krebs.Henseleit” for “Krebs.Heneseleit”
as §6

[3] = 0.1 to 10 μM, rabbit iliac artery

SMILES	125I-endothelin-1 binding inhibition D (%) to ETA (ETA receptor) [%]	125I-endothelin-1 binding inhibition D (%) to ETB (ETB receptor) [%]	Percent (%) inhibition of [125I]ET-1 specific binding to ETA (human ETA receptor) [%]	Percent (%) inhibition of [125I]ET-1 specific binding to ETB (human ETB receptor) [%]	effect on the isolated artery when applied alone [1]	influence on the concentration-response curve for endothelin-1 ([1]; 10 μM, added 20 minutes prior to endothelin-1, porcine coronary artery)	effect on maximum response to endothelin-1 ([1]; 10 μM, porcine coronary artery)	effect on the isolated artery when applied alone [2]	effect on maximum response to endothelin-1 [2, 3]	influence on the concentration-response curve for endothelin-1 [2, 3]
COc1ccc([C@H]2c3ncccc3[C@@H](c3ccc4c(c3)OCO4)[C@@H]2C(=O)O)cc1 (relative stereo) [Compound 2-enantiomer A]	99	80	99	80						
COc1ccc([C@H]2c3ncccc3[C@@H](c3ccc4c(c3)OCO4)[C@@H]2C(=O)O)cc1 (relative stereo) [Compound 2, (5RS,6SR,7SR)-6-Carboxy-5-(3,4-methylenedioxyphenyl)-7-(4-methoxyphenyl)cyclopenteno[1,2-b]pyridine]					showed no effects to the isolated coronary artery when applied alone	remarkably shifted the concentration-response curves of endothelin-1 to the right	did not affect the maximum response	showed no effects to the isolated iliac artery when applied alone	did not affect the maximum response	remarkably shifted the concentration-response curves of endothelin-1 to the right
